# Test results reported in paper PMC9671962 (Communications Biology, 2022).
# Like-named read-outs stand apart in the source and are kept apart here.
# Assays:
# neuroblastoma = conditions: cited from earlier work
# NB-EBC1x tumor = test: Biodistribution, autoradiography and tumor dosimetry in NB-EBC1x tumor-bearing mice; format: in vivo, female SCID CB17 mice; conditions: 1 hour
# Description: At various time points mice were euthanized and tissues were harvested, weighed, and assayed for radioactivity by gamma counter. Decay corrected data presented as percent injected dose per gram of tissue (%ID/g). Human dosimetry was calculated using OLINDA/EXM software by fitting time activity curves for biodistribution data. Tissue autoradiography was performed by freezing excised tumors at 1 h postinjection of each respective treatment. One tumor was collected for each treatment group. Tumors were cryosectioned (Leica Cryotome) at a thickness of 20 µm. Each section was collected with a 200 µm gap and a total of three sections were collected for each tumor. Sections were then exposed to a phosphorfilm for 60 h and films were read on a Cyclone Plus phosphorimager (Perkin Elmer). Experimental conditions have been included in the Supplementary Methods.
# Animal studies were performed in female mice due to the lack of sex-related differences for [^211At]PTT tolerability from initial dose response studies performed in female and male mice. Female mice were chosen due to their underlying behavior towards other study subjects that reduced nonstudy-related causes for decreased wellness. Pre-clinical efficacy studies were performed through “single mouse testing” to more closely recapitulate a clinical trial. […] Number size for treatment groups was determined by model tumor growth reproducibility, which was previously shown to have less than 5% normal variation with at least two animals. Statistical tests for tumor response and event-free survival (EFS) were performed as a grouped analysis that included all tumor models treated at each respective dose level (n = 2 per model per dose level). Statistical differences between treatment groups for tumor response was performed by paired-model T-test that compared reduction in tumor volume for the 36 MBq/kg dose level vs. 24 MBq/kg or 12 MBq/kg. Event free survival was measured by area over the curve method to quantify time to event, which was set as tumor growth exceeding 2 cm[3],[19]. Differences in EFS were tested across all treated models for each respective dose level, and against untreated controls, by paired-model ANOVA analysis. Associations of drug target expression and response were performed by linear regression analysis of EFS and PARP1 mRNA expression. Genetic signatures were visually presented as a function of EFS and no statistical tests were applied. Blood and marrow toxicity studies were performed with n = 5 sample sizes and powered to detect >20% differences between untreated controls and treated animals. Results were tested for significance by one-way ANOVA comparison from untreated controls. Marrow colony formation assays were performed in replicates of 2 for each mouse subject, dependent on marrow isolation, and all replicates are included in final analyses. Statistical analysis was performed by ordinary one-way ANOVA comparison between the mean of control and test groups. Biodistribution studies were performed with n = 3 mice per time-point. Human dosimetry was calculated using OLINDA/EXM v1.1 software by fitting time activity curves for biodistribution data in a healthy mouse model. Tumor dosimetry was calculated by OLINDA/EXM v1.1 by fitting time activity curves for NB-EBC1 tumors from biodistribution data. All statistical analyses were performed in GraphPad Prism version 9.3.1 unless indicated otherwise.
# [1] = mice; cited from earlier work
# [2] = in vitro; ref previously shown by the authors, no reference given; cited from earlier work
# PARP1 = conditions: cited from earlier work; for maximum standardized uptake values (SUVmax): clinical PET
# [3] = set-up: method as in PMID 27841728, PMID 27261505; conditions: cited from earlier work
# [4] = set-up: method as in PMID 27841728, PMID 28222073; conditions: cited from earlier work
# [5] = set-up: method as in PMID 28408529; conditions: cited from earlier work
compound,measurement,setting,value
"N=C(N)NCc1cccc([131I])c1 [[^131I]MIBG, iodine-131-metaiodobenzylguanidine]",overall survival benefit,neuroblastoma,below 40%
"[211At] [free astatine-211, astatine-211, reference compound]",tumor uptake compared to [^211At]PTT,NB-EBC1x tumor; 2-way ANOVA p value 0.0088,lower uptake in tumor
same,thyroid uptake compared to [^211At]PTT,NB-EBC1x tumor; 2-way ANOVA p-value 0.0004,significantly higher uptake in thyroid
same,MTD for a single dose,[1],greater than 50 MBq/kg
same,potency relative to [211At]PTT in vitro,[2],< 100 times
"O=C1NCCn2c(-c3ccc(OCC[18F])cc3)nc3cccc1c32 [[^18F]FTT, fluorine-18 Fluorthanatrace]",estimated kidney dose,PARP1; adults,0.018–0.027 mGy/MBq
same,maximum standardized uptake values (SUVmax),PARP1; breast cancer,4–7
same,time of rapid tumor uptake kinetics post injection,"PARP1; ovarian cancer patients, minimal wash-out",60 to 180 min
same,maximum standardized uptake values (SUVmax),PARP1; ovarian cancer,2–9
same,thyroid uptake,[3],around 4 % ID/g
same,"hepatobiliary clearance, share of blood clearance",[4],> 90%
CNCc1ccc(-c2[nH]c3cc(F)cc4c3c2CCNC4=O)cc1 [rucaparib],"hepatobiliary clearance, share of blood clearance",[4],> 90%
O=C([O-])CC[C@H](NC(=O)N[C@@H](CCCCNC(=O)[C@H](Cc1ccc2ccccc2c1)NC(=O)C1CCC(CNC(=O)CN2CCN(CC(=O)[O-])CCN(CC(=O)[O-])CCN(CC(=O)[O-])CC2)CC1)C(=O)[O-])C(=O)[O-].[225Ac].[H+].[H+].[H+] (stereo partly shown) [[^225Ac]PSMA-617],kidney dose,[5],740 mSv/MBq
